Experimental data reported in PubChem BioAssay AID652222 (The Scripps Research Institute Molecular Screening Center, 2013).

Target: Serine/threonine-protein phosphatase PP1-alpha catalytic subunit (Homo sapiens) (UniProt P62136)
Assay: dose-dependent PP1alpha phosphatase inhibition – biochemical, fluorescence, OMFP substrate, set 1, dose response (AID 652222)
Conditions: purified PP1alpha, OMFP dephosphorylation

Chain of Serine/threonine-protein phosphatase PP1-alpha catalytic subunit (Homo sapiens) (P62136 whole entry, looked up): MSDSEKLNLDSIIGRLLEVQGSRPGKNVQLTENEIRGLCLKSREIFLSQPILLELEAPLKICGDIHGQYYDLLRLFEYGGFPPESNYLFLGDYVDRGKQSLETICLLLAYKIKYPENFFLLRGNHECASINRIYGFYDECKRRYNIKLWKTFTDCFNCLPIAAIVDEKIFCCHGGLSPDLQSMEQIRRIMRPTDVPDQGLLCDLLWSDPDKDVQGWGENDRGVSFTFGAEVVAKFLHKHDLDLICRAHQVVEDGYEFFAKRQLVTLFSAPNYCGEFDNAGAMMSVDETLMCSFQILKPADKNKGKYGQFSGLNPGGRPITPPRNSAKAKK

| IC50 | SMILES |
| --- | --- |
| 1450 nM | CC1CCN(C(c2ccccn2)c2cc(Cl)c3cccnc3c2O)CC1 (stereo not drawn) |
| 1230 nM | Oc1c(C(c2ccccn2)N2CCC(Cc3ccccc3)CC2)cc(Cl)c2cccnc12 (stereo not drawn) |
| 1360 nM | Oc1c(C(NC2CCCCC2)c2ccccn2)ccc2cccnc12 (stereo not drawn) |
| 1340 nM | Cc1ccc(C(c2ccc3cccnc3c2O)N2CCN(C)CC2)nc1 (stereo not drawn) |
| 836 nM | CN1CCN(C(c2ccc(C(F)(F)F)cn2)c2ccc3cccnc3c2O)CC1 (stereo not drawn) |
| 1120 nM | CN1CCN(C(c2ccc3cccnc3c2O)c2ncccc2C(F)(F)F)CC1 (stereo not drawn) |
| 1410 nM | Oc1c(C(c2ccccn2)N2CCCC2)ccc2cccnc12 (stereo not drawn) |
| 1800 nM | Cc1ccnc(C(c2ccc3cccnc3c2O)N2CCN(C)CC2)c1 (stereo not drawn) |
| 1370 nM | CC(C)(C)OC(=O)N1CCN(C(c2ccccn2)c2cc(Cl)c3cccnc3c2O)CC1 (stereo not drawn) |
| 2500 nM | CN1CCC(NC(c2ccccn2)c2ccc3cccnc3c2O)CC1 (stereo not drawn) |
| 2410 nM | Oc1c(C(c2ccccn2)N2CCN(c3ccccc3F)CC2)cc(Cl)c2cccnc12 (stereo not drawn) |
| 1260 nM | COc1ccnc(C(c2ccc3cccnc3c2O)N2CCN(C)CC2)c1 (stereo not drawn) |
| 1440 nM | Cc1ccc2ccc(C(c3ccccn3)N3CCN(C)CC3)c(O)c2n1 (stereo not drawn) |
| 8870 nM | COc1cccc(C(c2ccc3cccnc3c2O)N2CCN(C)CC2)n1 (stereo not drawn) |
| 1690 nM | COc1ccc(C(c2ccc3cccnc3c2O)N2CCN(C)CC2)nc1 (stereo not drawn) |
| 2520 nM | Cc1cccc(C(c2ccc3cccnc3c2O)N2CCN(C)CC2)n1 (stereo not drawn) |
| 2690 nM | CN1CCN(C(c2ncccn2)c2ccc3cccnc3c2O)CC1 (stereo not drawn) |
| 1480 nM | Cc1cccnc1C(c1ccc2cccnc2c1O)N1CCN(C)CC1 (stereo not drawn) |
